# Experimental data as given in patent US9127291B2, “Methods and products for biasing cellular development” (University of Central Florida Research Foundation, Inc., priority 2004, dated 2015).
# Entries after “also recorded” stand apart in the source; their conditions may differ.
# B1: Lhx8: mouse cDNA clone for Lhx8 (SEQ ID NO: 7) inserted into pcDNA 3.1/Zeo mammalian expression vector (nucleic acid, listed as Mus musculus)
# DNA: GAATTCGGCACGAGCTTCAGGAAAAGACTTTTCCCCCCACTCCCCCTCCTCTCTGCGAGGTTCCACCCTCTGGAAAACACAACTTTCCCTCTTTTTCTGGAGGGACAGGCCTTAGTGTGGCTGAGAGAGGAAGAACAGTGGGTCAGAGAGTGGTTACGTCACTGTGGCCTTTTTGGAACAAGACACACTGGTGGCATCGCTGTCCTGCCTGTTAGCTTTCCTTGGCCTTTGGGGGCGGAGGAGGGGACACTGCGGACACCCACAGCCTCTGACCCTGCTGGAGCTGGTATGTGACGAGCAGCCCTCGGGCCATGTATTGGAAGAGCGATCAGATGTTTGTGTGTAAGCTGGAGGGAAAGGAGATGCCGGAGCTGGCGGTTCCCCGCGAGATGTGCCCCGGGCTCATGTCGGAGGAGTGCGGGCGGCCTGCAGCTGGCGCCGGGAGGACCCGCAAAGGCTCTGGGGAAGAAGGACTGGTGAATCCCGAGGGAGCCGGGGACGAGGACTCCTGCTCCTCCTCGGGCCCGCTTTCCCCGTCGTCCTCGCCCCAGTCCATGGCCTCGGGTCCGATGTGCCCGCCAGGCAAGTGTGTGTGCAGCAGCTGCGGCCTGGAGATTGTGGACAAATACCTCCTCAAGGTGAATGACTTATGCTGGCATGTCCGCTGTCTCTCCTGCAGTGTCTGCAGAACGTCCCTGGGAAGGCACACGAGCTGCTACATTAAGGATAAAGATATTTTCTGTAAACTCGATTACTTCAGACGGTATGGGACCCGCTGTTCCCGCTGTGGCAGGCACATCCACTCGACTGACTGGGTCCGCAGGGCAAAGGGCAACGTGTATCACCTGGCCTGCTTTGCCTGCTTTTCTTGCAAGAGGCAGCTGTCCACGGGAGAGGAGTTCGCCTTGGTGGAGGAGAAGGTCCTCTGTAGAGTGCACTTTGACTGCATGCTGGACAATCTGAAGAGAGAAGTGGAGAACGGTAATGGGATTAGTGTGGAAGGAGCCCTTCTCACAGAGCAAGACGTCAATCATCCAAAGCCAGCCAAAAGAGCTCGGACCAGCTTCACAGCCGATCAGCTCCAGGTTATGCAAGCACAGTTCGCTCAGGACAACAACCCAGATGCACAGACCCTCCAGAAACTGGCAGAAAGGACAGGCTTAAGCAGACGTGTCATACAGGTGTGGTTTCAGAACTGCAGGGCCCGCCATAAGAAACACGTCAGCCCAAACCATTCTTCCTCGGCCCCCGTCACAGCTGTCCCCTCCTCCAGGCTGTCCCCACCCATCTTGGAAGAAATGGCTTATTCTGCCTACGACCCCCAGGATGACGGGATGCTGACTGCGCACTCATACTTGGATGCTCACCAACAACTCCTGGACTCCAGCCCTTGTTACCCCATCCAATGACCCAGCTGCCAATAAGTCATACCTAATTCCTTCTTTCAGGGATAGAAATGATTGAGGTTATAAACTTGTCATTTTATTATGTATAAAAATA
# Assays:
# LA-N-2 cells = experiment: Retinoic acid treatment of LA-N-2 human neuroblastoma cells; assay type: cell-based; conditions: final concentration 10^−6M
# Method: LA-N-2 cells were obtained from Dr. Jan Blusztajn (Boston University, MA). The cells were cultured in Leibovitz L-15 medium (Gibco, BRL, Burlington, ON) containing 10% fetal calf serum and antibiotic-antimyotic mixture (Gibco) in a humidified incubator at 37° C. without CO2. The medium was replaced every 3 days. For treatment with retinoic acid (RA), the cells were sub-plated at a density of 0.5-1×10^6 cells/plate using 0.25% trypsin/1 mM EDTA (Gibco, BRL) and allowed to attach overnight. A fresh stock of 4 mM all-trans retinoic acid RA (Sigma, St. Louis, Mo.) was prepared in 100% ethanol under amber lighting. […] The media was changed every 48 h during the differentiation of the cells, which was complete after 7-14 days.
# Following fixation, HNSCs were briefly washed 3×5 min in Phosphate buffered saline (PBS), then blocked with 3% normal donkey serum in PBS containing 0.05% Tween 20 (PBS-T) and incubated with goat IgG polyclonal anti-human ChAT (1:500, Chemicon), mouseIgG2b monoclonal anti-human βIII-tubulin (1:1000, Sigma) or rabbit anti-human […] (GFAP) (1:1000, Sigma) overnight at 4° C. The corresponding secondary antibodies (donkey anti-goat, donkey anti-mouse, and donkey anti-rabbit, respectively) conjugated to rhodamine or FITC (Jackson IR Laboratories, Inc.) were added for a 2 hr incubation at RT in the dark. […]
# [1] = test system: Human Neural Stem Cells (HNSCs); experiment: Differentiation of Hath1-transfected HNSCs (calretinin immunocytochemistry, Western blot, electron microscopy); assay type: cell-based
# Method: An established a non-serum HNSC culture system was utilized to investigate the differentiation of human neural stem cells (HNSCs) within a defined condition. (Christopher L. Brannen and Kiminobu Sugaya, Regeneration and Transplantation, 11:5, 1123-1128 (2000)). The serum-free supplemented growth medium consisted of HAMS-F12 (Gibco, BRL, Burlington, ON), antibiotic/antimycotic mixture (1:100, Gibco), B27 (1:50, Gibco), human recombinant FGF-2 and EGF (20 ng/ml each, R and D Systems, Minneapolis, Minn.), and heparin (5 ug/ml, Sigma, St. Louis, Mo.). Cells were maintained in 20 ml of this medium at 37° C. in a 5% CO2 humidified incubation chamber.
# The mammalian expression vector containing Hath1 gene was transfected into HNSCs by using the Neuroporter Kit (Gene Therapy Systems, Inc. San Diego, Calif.) and Hath 1 gene expression was confirmed by RT-PCR. These Hath1-transfected HNSCs were differentiated for 7 days by the depletion of mitotic factors (FGF-2, EGF) from the culture media. After the differentiation the cells were fixed for immunocytochemistry and Electron Microscopy.
# The gene expression of Hath1 is assessed by RT-PCR with the following condition: 95° C. (60″), 56° C. (60″), 72° C. (60″) for 35 cycles, with an initial denaturation of 95° C. (5′) and final elongation of 72° C. (15′). The Hath1 gene is transfected into Human Neural Stem Cells (HNSCs) using the Neuroporter Kit. The Neuroporter kit utilizes a lipid-based transfection system for the use with cultured primary neurons, neuronal cell lines, and glial cells. DNA and Neuroporter are used in a ratio of 10 μg DNA/75 μl Neuroporter, utilizing 37.5 μl per well in a 6-well plate and with total volumes of 1.5 mL growth media per well. […]
# Following PBST washing, the cells are incubated with secondary antibody biotinylated anti-rabbit made in goat in PBS containing 0.05% Triton-X100 (PBST), with a dilution factor of 1:200. […] The cells are washed with water, ethanol, and xylene, coverslipped with permount, and ready for viewing with microscopy. […]
# HNSCs [2] = experiment: Co-culture of HNSCs transfected with human Lhx8 gene with RA-treated LA-N-2 cells; assay type: cell-based; conditions: co-culture with RA-treated LA-N-2 cells
# Method: Using the same vector formation and transfection methods as in Example 2, the Human Lxh8 gene (SEQ ID NO: 6) is transfected into HNSCs. Transfected NHSC cells are cultured in a first treatment that includes LA-N-2 cells that are treated with RA and that express both Lhx8 and ChAT. A co-culture control comprises NHSCs that are not transfected but that are in the same culture vessel as LA-N-2 that are treated with RA and that express both Lhx8 and ChAT. For the first treatment and the co-culture control, HNSC cells are placed in cell culture inserts with an appropriate pore size and suspended in basal media (in the absence of FGF-2 and EGF and without the addition of other extrinsic differentiation factors) over differentiated LA-N-2 cells plated in 6-well plates.
# Immunochemistry follows the same procedure as in Example 2 above.
# HNSCs [3] = experiment: Co-culture of Lhx8-transfected HNSCs with RA-treated LA-N-2 cells, immunocytochemistry; assay type: cell-based, human
# Method: HNSCs culture: Human NSCs were originally purchased from BioWhittaker, Walkersville, Md. These cells have been expanded and passaged in a serum-free culture medium containing bFGF and EGF in our laboratory for over three years (Brannen & Sugaya, 2000). The HNSCs were cultured at a density of 50 spheres in 75 cm^2 culture flasks (Corning, Cambridge, Mass.) in 20 ml of a serum-free supplemented growth medium consisting of HAMS-F12 (Gibco, BRL, Burlington, ON), antibiotic-antimycotic mixture (1:100, Gibco), B27 (1:50, Gibco), human recombinant FGF-2 and EGF (20 ng/ml each, R&D Systems, Minneapolis, Minn.) and heparin (5 μg/ml, Sigma, St. Louis, Mo.) incubated at 37° C. in a 5% CO^2 humidified incubation chamber (Fisher, Pittsburgh, Pa.). To facilitate optimal growth conditions, HNSCs were sectioned into quarters every 2 weeks and fed by replacing 50% of the medium every 4-5 days.
# HNSCs were placed in 6-well poly-lysine coated plates and transfected with 4 μg pcDNA 3.1/Lhx8 plasmid using the Neuroporter transfection system (Gene Therapy Systems, see description in Example 1). Upon the insertion of the Lhx8 gene expressible sequence into the directional cloning vector, the expressible sequence was operatively linked to the CMV promoter, and was also positioned upstream (with regard to reading) of a polyadenylation transcription termination site. Lhx8 expression was confirmed after 48 hrs by RT-PCR using primers designed from the gene cDNA sequence; 5′[…]′ 3 (SEQ ID NO: 12, upper primer) and 5′[…]′3 (SEQ ID NO: 13, lower primer). To initiate differentiation, HNSCs were placed in serum-free basal medium, and allowed to differentiate for 10-15 days in culture.
# HNSCs (˜5×10^4) transfected with pcDNA 3.1/Lhx8 and non-transfected HNSCs (controls) were transferred into cell culture inserts with an appropriate pore size and suspended in basal media (in the absence of FGF-2 and EGF and without the addition of other extrinsic differentiation factors) over differentiated LA-N-2 cells plated in 6-well plates. […]
molecule,measurement,setting,value
"CC1=C(/C=C/C(C)=C/C=C/C(C)=C/C(=O)O)C(C)(C)CCC1 [RA, all-trans retinoic acid]",Lhx8 and ChAT gene expression by RT-PCR compared with non-treated cells,LA-N-2 cells; RA,increased expression
same,marker expression in LA-N-2 cells (immunostaining),"LA-N-2 cells; RA-containing media, 7-14 days","expressed Lhx8, βIII-tubulin, and ChAT"
"Hath1: Hath1 gene amplified from BAC clone RP11-680J17, cloned into mammalian expression vector pcDNAHismax TOPO TA under CMV promoter",cell morphology by electron microscopy,[1]; transfected HNSCs after differentiation,typical IEHC morphology; also recorded: distinct hair-like projections
same,calretinin expression by Western blot,[1]; transfected HNSCs differentiated for 7 days,single band specific to calretinin molecular weight
same,calretinin (hair cell marker) expression by immunocytochemistry,"[1]; transfected HNSCs differentiated for 7 days without FGF-2, EGF",existence of cells expressing calretinin
Human Lxh8 gene: Human Lxh8 gene (SEQ ID NO: 6) transfected into HNSCs with the vector and methods of Example 2,"differentiated cell type (βIII-tubulin, ChAT staining)",HNSCs [2],positive for βIII-tubulin and ChAT
B1,"differentiated cell type (βIII-tubulin, ChAT staining)","HNSCs [3]; co-culture with LA-N-2 cholinergic cells, serum-free, 10-20 days",differentiated into mainly βIII-tubulin and ChAT-positive cells; also recorded: differentiated mostly neurons with long extended processes
same,percentage of transfected cells with characteristics of cholinergic neurons,"HNSCs [3]; one trial, end of trial",over 40%
same,"number of cells differentiating to cells having characteristics of cholinergic cells, versus non-transfected HNSCs",HNSCs [3]; transfected HNSCs cultured without differentiated LA-N-2 cells,no significant difference
